Measured values as given in patent publication US12371464B2, “Polypeptides and uses thereof” (MEDIMMUNE LIMITED, priority 2020, dated 2025).
Numbered stars: 1 amine (or outer) side, 2 acyl side, 3 side chain; on linkers, the order of the positions; unused ones are H or OH. Bridge positions count the residues as written; N and C are the ends. Square brackets hold non-standard residues; d marks the D form. Side chains are listed from the residue outwards. Peptide text beside a SMILES is read from it. * marks the point of attachment. C18 diacid = O=C(O)CCCCCCCCCCCCCCCCC(=O)*; γGlu = O=C(O)[C@H](CCC(=O)[*:2])N[*:1]; αMeF = C[C@](N)(Cc1ccccc1)C(=O)O

Columns and labels:
[1] = Thioflavin T fibrillation assay; assay type: physicochemical; settings: 1 mg/mL in 25 mM sodium acetate buffer pH 4.0, 37° C., 6 days, orbital shaking; >144 h = no increase
Procedure, shortened: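 Peptides at 1 mg/mL in 25 mM sodium acetate pH 4.0 were mixed with ThT (0.25 mM stock) and held 6 days at 37 °C with intermittent orbital shaking at 500–750 rpm. Fluorescence (ex 444/em 480 nm) was read every 30 min, with buffer baseline correction and 5 replicates. Value: mean time to a detectable fluorescence increase.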

lean rats = assay: Rat acute food intake study; assay type: in vivo, Sprague Dawley rats; settings: 20 nmol/kg subcutaneously
Method: Male Sprague Dawley rats were obtained from Taconic Denmark, ApS at approximately 7 weeks of age. . . . Rats were implanted with a microchip for identification, housed 4/cage with enrichment, free access to food and water, and allowed one week acclimatisation while non-invasive characterization was performed. Rats were on a 12:12 light:dark cycle that switches at 1 pm:1 am. Food intake was monitored via the HM2 system (Lafayette Instrument) that allows for monitoring in a home cage. As each rat enters an access tunnel to feed, an IR beam is broken, and the implanted microchip is read. Resulting changes to food weight is then assigned to the specific animal. Social order has shown no impact to overall feeding patterns and amounts.
Rats were sorted into groups based on Day-1 body weight and 24-hour accumulated food intake (n=7 per group). On Day 0 rats were weighed, then fasted for 6 hours. Thirty (30) minutes prior to the reintroduction of food, rats were dosed subcutaneously (5 ml/kg) with 20 nmol/kg of test compound or 60 nmol/kg peptide 1 (pramlintide) diluted in an appropriate vehicle, after which food was returned, and lights went out. Automated food intake was monitored for the following 3 days, and rats were weighed once per day.
Food intake per rat was batched into 1-hour intervals and integrated into Gubra's GubraView data management system. Discrete food intake data was exported into MS Excel from which cumulative food intake data was generated. Cumulative food intake data was then transposed into GraphPad Prism (v8.0.1) for analysis of dark period feeding

Structure (SMILES) | Time taken to detect increase in fluorescence intensity [1] [h] | Cummulative food intake (% vehicle treated intake) At 48 h (lean rats; at 48 h) [% vehicle treated intake] | Cummulative food intake (% vehicle treated intake) At 12 h (lean rats; at 12 h) [% vehicle treated intake]
CC[C@H](C)[C@H](NC(=O)[C@@H]1CCCN1C(=O)CNC(=O)[C@](C)(Cc1ccccc1)NC(=O)[C@H](CC(N)=O)NC(=O)[C@H](CC(N)=O)NC(=O)[C@H](CO)NC(=O)[C@H](CO)NC(=O)[C@H](Cc1c[nH]cn1)NC(=O)[C@H](CCCNC(=N)N)NC(=O)[C@H](CC(C)C)NC(=O)[C@H](Cc1ccccc1)NC(=O)[C@H](CC(N)=O)NC(=O)[C@H](C)NC(=O)[C@H](CC(C)C)NC(=O)[C@H](CCCNC(=N)N)NC(=O)[C@H](CCC(N)=O)NC(=O)[C@@H](NC(=O)[C@H](C)NC(=O)[C@@H]1CSSC[C@H](NC(=O)[C@H](CCCCN)NC(=O)[C@@H](N)CCCCNC(=O)CC[C@H](NC(=O)CCCCCCCCCCCCCCCCC(=O)O)C(=O)O)C(=O)N[C@@H](CC(N)=O)C(=O)N[C@@H]([C@@H](C)O)C(=O)N[C@@H](C)C(=O)N[C@@H]([C@@H](C)O)C(=O)N1)[C@@H](C)O)C(=O)N[C@@H](CC(C)C)C(=O)N1CCC[C@H]1C(=O)N1CCC[C@H]1C(=O)N[C@H](C(=O)N[C@@H](CCC(=O)O)C(=O)N[C@H](C(=O)NCC(=O)N[C@@H](CO)C(=O)N[C@@H](CC(N)=O)C(=O)N[C@H](C(=O)N[C@@H](Cc1ccc(O)cc1)C(N)=O)[C@@H](C)O)C(C)C)[C@@H](C)O [Peptide 15, K(γE-C18diacid)K[CNTATC]ATQRLANFLRHSSNN(αMePhe)GPILPPTEVGSNTY-amide] (H-K([γGlu-C18 diacid])KCNTATCATQRLANFLRHSSNN[αMeF]GPILPPTEVGSNTY-NH2; disulfide 3-8; N-terminus assumed) | >144 | 51 | 
CC[C@H](C)[C@H](NC(=O)[C@@H]1CCCN1C(=O)CNC(=O)[C@](C)(Cc1ccccc1)NC(=O)[C@H](CC(N)=O)NC(=O)[C@H](CC(N)=O)NC(=O)[C@H](CO)NC(=O)[C@H](CO)NC(=O)[C@H](Cc1c[nH]cn1)NC(=O)[C@H](CCCNC(=N)N)NC(=O)[C@H](CC(C)C)NC(=O)[C@H](Cc1ccccc1)NC(=O)[C@H](CC(N)=O)NC(=O)[C@H](C)NC(=O)[C@H](CC(C)C)NC(=O)[C@H](CCCNC(=N)N)NC(=O)[C@H](CCC(N)=O)NC(=O)[C@@H](NC(=O)[C@H](C)NC(=O)[C@@H]1CSSC[C@H](NC(=O)[C@@H](N)CCCCNC(=O)CC[C@H](NC(=O)CC[C@H](NC(=O)CCCCCCCCCCCCCCCCC(=O)O)C(=O)O)C(=O)O)C(=O)N[C@@H](CC(N)=O)C(=O)N[C@@H]([C@@H](C)O)C(=O)N[C@@H](C)C(=O)N[C@@H]([C@@H](C)O)C(=O)N1)[C@@H](C)O)C(=O)N[C@@H](CC(C)C)C(=O)N1CCC[C@H]1C(=O)N1CCC[C@H]1C(=O)N[C@H](C(=O)N[C@@H](CC(N)=O)C(=O)N[C@H](C(=O)NCC(=O)N[C@@H](CO)C(=O)N[C@@H](CC(N)=O)C(=O)N[C@H](C(=O)N[C@@H](Cc1ccc(O)cc1)C(N)=O)[C@@H](C)O)C(C)C)[C@@H](C)O [Peptide 20, K(γE-γE-C18diacid)[CNTATC]ATQRLANFLRHSSNN(αMePhe)GPILPPTNVGSNTY-amide] (H-K([γGlu-γGlu-C18 diacid])CNTATCATQRLANFLRHSSNN[αMeF]GPILPPTNVGSNTY-NH2; disulfide 2-7; N-terminus assumed) | >144 |  | 27
